Data reported in US12121525B2, “Methods for treating GI syndrome and graft versus host disease” (Sloan Kettering Institute for Cancer Research, priority 2007, dated 2024).

Legend:
ASMase = molecular target: T1, ASMase (Homo sapiens, UniProt P17405); assay: ASMase activity assay in Jurkat cells stimulated with UV-C or anti-Fas; format: cell-based
T1 construct: Jurkat cells were lysed in PBS containing 0.2% Triton X-100; endogenous in cells; host or cells: Jurkat T lymphocytes (clone E6-1, ATCC)
T1 sequence (P17405 47-631): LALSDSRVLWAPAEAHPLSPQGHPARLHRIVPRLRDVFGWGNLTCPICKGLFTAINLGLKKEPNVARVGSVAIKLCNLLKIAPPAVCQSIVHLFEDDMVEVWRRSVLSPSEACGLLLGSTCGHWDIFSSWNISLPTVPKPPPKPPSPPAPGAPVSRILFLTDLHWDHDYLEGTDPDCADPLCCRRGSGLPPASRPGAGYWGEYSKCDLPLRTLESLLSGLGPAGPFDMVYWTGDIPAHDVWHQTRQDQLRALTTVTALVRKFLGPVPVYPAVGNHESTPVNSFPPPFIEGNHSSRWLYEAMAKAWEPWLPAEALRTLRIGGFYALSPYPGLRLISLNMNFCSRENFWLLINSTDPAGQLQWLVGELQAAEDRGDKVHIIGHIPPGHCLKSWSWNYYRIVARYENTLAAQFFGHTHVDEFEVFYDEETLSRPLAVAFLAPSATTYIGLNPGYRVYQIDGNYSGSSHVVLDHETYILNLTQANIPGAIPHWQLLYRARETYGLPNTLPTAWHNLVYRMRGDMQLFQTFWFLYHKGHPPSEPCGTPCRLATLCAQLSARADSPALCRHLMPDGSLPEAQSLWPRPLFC
Method: Others have shown that ceramide is required for Fas-induced apoptosis in some cell types. We looked at the requirement for UV-C-induced ceramide generation in initiating the apoptotic response. By UV-C is meant ultraviolet radiation in the 100-280 nm wavelength range. In these studies imipramine was used to inhibit ASMase-activity. Pre-treatment of Jurkat cells with […] imipramine for 30 min decreased baseline ASMase activity, abrogated UV-C and Fas-induced ASMase activation at 1 min post stimulation and ceramide generation at 2 minutes, and attenuated apoptosis at 4 hours post-stimulation. […] Grassme et al., J Biol Chem. 2001, 276:20589, incorporated herein by reference. […]
ASMase activity was measured using a fluorescence-based, high-performance liquid chromatographic (HPLC) assay^98. […] ASMase activity was measured by incubating an equal volume of lysate in assay buffer [500 μM BODIPY-C12 sphingomyelin (Molecular Probes, Eugene OR), 0.1 mM ZnCl2, 0.1 M sodium acetate pH 5.0 and 0.6% Triton X-100] for 60 min at 37° C. […] Fluorescence was quantified using a Waters 474 (Waters Corp.) fluorescence detector set to excitation and emission wavelengths of 505 and 540 nm, respectively. The amount of product generated was calculated using a regression equation derived from a standard curve established for known amounts of BODIPY-C12 ceramide standard. […]

Jurkat cells [1] = assay: UV-C- and anti-Fas-induced apoptosis in Jurkat cells; format: cell-based, human; settings: 50 mM imipramine 30 min; 4 hours post UV-C or Fas stimulation
Method: (§1) Others have shown that ceramide is required for Fas-induced apoptosis in some cell types. We looked at the requirement for UV-C-induced ceramide generation in initiating the apoptotic response. By UV-C is meant ultraviolet radiation in the 100-280 nm wavelength range. In these studies imipramine was used to inhibit ASMase-activity. Pre-treatment of Jurkat cells with […] imipramine for 30 min decreased baseline ASMase activity, abrogated UV-C and Fas-induced ASMase activation at 1 min post stimulation and ceramide generation at 2 minutes, and attenuated apoptosis at 4 hours post-stimulation. […] Grassme et al., J Biol Chem. 2001, 276:20589, incorporated herein by reference.
H. Grassme, H. Schwarz, and E. Gulbins, Biochem Biophys Res Commun 284 (4), 1016 (2001), incorporated herein by reference. […] Importantly, we also observed that anti-ceramide and nystatin pretreatment yielded an approximate 1 log increase in clonogenic cell survival compared to vehicle controls after 5-50 J/m^2 UV-C or anti-Fas stimulation. […]
Apoptosis was assessed in vitro by two different techniques. […] Morphologic changes of nuclear apoptosis including chromatin condensation, segmentation and compaction along the periphery of the nucleus or the appearance of apoptotic bodies were quantified using an Axiovert S-100 Zeiss fluorescence microscope as previously described ^33. […]

Jurkat cells [2] = assay: Ceramide generation in Jurkat cells (diacylglycerol kinase assay); format: cell-based, human; settings: 50 mM imipramine 30 min; 2 minutes post UV-C or Fas stimulation
Method: as §1
Jurkat cells, stimulated with UV-C or CH-11, were incubated for the indicated times at 37° C. Stimulation was terminated by the addition of 2 ml of chloroform:methanol:HCl (100:100:1,v/v/v), and ceramide was quantified by the diacyglycerol kinase assay, as described^97.

UV-C and Fas-induced ASMase activation (ASMase; 50 mM imipramine 30 min, 1 min post stimulation): abrogated
baseline ASMase activity (ASMase; pre-treatment with 50 mM imipramine for 30 min): decreased
Structure (SMILES): CN(C)CCCN1c2ccccc2CCc2ccccc21 [imipramine]
apoptosis (Jurkat cells [1]): attenuated
ceramide generation (Jurkat cells [2]): abrogated
